Key:
[1] = test system: Panicum dichotomiflorum (PANDI); test: Test F preemergence, alone and in mixture with rimsulfuron, PANDI; assay type: in vivo; conditions: 21 days after treatment, 0-100 scale
Experimental: Abutilon theophrasti (ABUTH), Chenopodium album (CHEAL), Amaranthus rudis (AMATA), Setaria faberii (SETFA), Panicum dichotomiflorum (PANDI), and Digitaria sanguinalis (DIGSA) were grown from seed in pots of an artificial potting mixture in a greenhouse. Compounds of the present invention were applied at 70 and 105 g ai/ha preemergence. Rimsulfuron was applied at 8.8 and 17.5 g ai/ha. Mixtures of the compounds of the present invention and rimsulfuron were also applied.
Following application, the plants were maintained by watering as needed. A fertilizer solution of Peter's 20-20-20 (10 pounds/5 gallons of water) plus Sprint 330, a Iron Chelate micronutrient, (113.5 grams/5 gallons of water) was injected into the water with an Anderson fertilizer injection system to provide approximately 219 ppm of nitrogen with each watering. Artificial lighting was used to supplement natural light to produce a 14 hour photoperiod and: an additional one hour light period was used between 1:00 am to 2:00 am for a night interruption. Greenhouse temperatures were targeted for 27° C. in the day and 21° C. at night. At 21 days after treatment, all plants were evaluated for injury as compared to control plants that were sprayed only with non-phytotoxic solvent.
Colby's equation was used to calculate the expected additive herbicidal effect of the mixtures of Compound 21 and the mixture partners listed above. […]

itchgrass = test: Test D itchgrass; assay type: in vivo, Rottboellia exaltata; conditions: Postemergence, 0 to 100 scale

In the case of CC(C)N(C(=O)n1oc(=O)n(C(C)C)c1=O)c1ccc(F)cc1 [Compound 131], the “PANDI Observed” value ([1]; Alone: Cmpd. rate 70, Rimsulfuron 0) is reported as 100%, the “PANDI Observed” value ([1]; Alone: Cmpd. rate 105, Rimsulfuron 0) is reported as 95% and the “Plant response rating, Itchgrass” value (itchgrass; Rate 16 g/ha, 0 no injury, 100 complete control) is reported as 0. For the same compound, the “Plant response rating, Itchgrass” value (itchgrass; Rate 32 g/ha, 0 no injury, 100 complete control) was 0, the “Plant response rating, Itchgrass” value (itchgrass; Rate 64 g/ha, 0 no injury, 100 complete control) was 20 and the “Plant response rating, Itchgrass” value (itchgrass; Rate 125 g/ha, 0 no injury, 100 complete control) was 100. For the same compound, the “Plant response rating, Itchgrass” value (itchgrass; Rate 250 g/ha) was 100.

From patent US6737383B1, “Herbicidal oxadiazolidines” (priority 1999, dated 2004)
